Assay results as given in ChEMBL document CHEMBL1201862, “PubChem BioAssay data set” (2004).
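Protocol summary: plate cells (96-well), add compound at 5 concentrations, incubate 48 h, interpolate endpoints linearly. GI50 = concentration required for 50% inhibition of growth.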 The source made the active and inactive calls. Cut-off read from the data, not from the text of the source: active = GI50 up to about 1.1 µM and inactive = higher.

Legend:
Assay in all cases: NCI tumour cell line growth inhibition, 48 h
786-0 = test system: 786-0
KM12 = test system: KM12
RXF 631 = test system: RXF 631
NCI-H23 = test system: NCI-H23
HL-60 = test system: HL-60
SNB-75 = test system: SNB-75
ACHN = test system: ACHN
M14 = test system: M14
DMS-273 = test system: DMS-273
HT-29 = test system: HT-29
SK-OV-3 = test system: SK-OV-3
M19-MEL = test system: M19-MEL
HOP-62 = test system: HOP-62
SK-MEL-28 = test system: SK-MEL-28
OVCAR-4 = test system: OVCAR-4
HCT-15 = test system: HCT-15
K562 = test system: K562
SF-295 = test system: SF-295
HOP-92 = test system: HOP-92
SNB-19 = test system: SNB-19
Malme-3M = test system: Malme-3M
U-251 = test system: U-251
SR = test system: SR
MOLT-4 = test system: MOLT-4
NCI-H522 = test system: NCI-H522
DMS-114 = test system: DMS-114
DLD-1 = test system: DLD-1
OVCAR-3 = test system: OVCAR-3
LXFL 529 = test system: LXFL 529
IGROV-1 = test system: IGROV-1
SK-MEL-5 = test system: SK-MEL-5
HOP-18 = test system: HOP-18
SK-MEL-2 = test system: SK-MEL-2
CAKI-1 = test system: CAKI-1
HCT-116 = test system: HCT-116
NCI-H460 = test system: NCI-H460
UACC-257 = test system: UACC-257
UACC-62 = test system: UACC-62
A498 = test system: A498
HCC 2998 = test system: HCC 2998
OVCAR-5 = test system: OVCAR-5
TK-10 = test system: TK-10
SW-620 = test system: SW-620
A549 = test system: A549
OVCAR-8 = test system: OVCAR-8
RXF 393 = test system: RXF 393
LOX IMVI = test system: LOX IMVI
SN12C = test system: SN12C
RPMI-8226 = test system: RPMI-8226
SF-539 = test system: SF-539
KM-20L2 = test system: KM-20L2
NCI-H226 = test system: NCI-H226
UO-31 = test system: UO-31
CCRF-CEM = test system: CCRF-CEM
COLO 205 = test system: COLO 205
SNB-78 = test system: SNB-78
SF-268 = test system: SF-268
EKVX = test system: EKVX

## COc1ccc(/N=N/c2c(N)nn(C)c2N)cc1
786-0
  GI50: > 100 µM (inactive)
KM12
  GI50: > 100 µM (inactive)
RXF 631
  GI50: > 100 µM (inactive)
NCI-H23
  GI50: > 100 µM (inactive)
HL-60
  GI50: > 100 µM (inactive)
SNB-75
  GI50: 51.6 µM (inactive)
ACHN
  GI50: > 100 µM (inactive)
M14
  GI50: > 100 µM (inactive)
DMS-273
  GI50: > 100 µM (inactive)
HT-29
  GI50: > 100 µM (inactive)
SK-OV-3
  GI50: > 100 µM (inactive)
M19-MEL
  GI50: > 100 µM (inactive)
HOP-62
  GI50: > 100 µM (inactive)
SK-MEL-28
  GI50: > 100 µM (inactive)
OVCAR-4
  GI50: > 100 µM (inactive)
HCT-15
  GI50: > 100 µM
K562
  GI50: > 100 µM (inactive)
SF-295
  GI50: > 100 µM (inactive)
HOP-92
  GI50: > 100 µM (inactive)
SNB-19
  GI50: > 100 µM (inactive)
Malme-3M
  GI50: > 100 µM (inactive)
U-251
  GI50: > 100 µM (inactive)
SR
  GI50: 18.5 µM (inactive)
MOLT-4
  GI50: 82.8 µM (inactive)
NCI-H522
  GI50: > 100 µM (inactive)
DMS-114
  GI50: > 100 µM (inactive)
DLD-1
  GI50: > 100 µM (inactive)
OVCAR-3
  GI50: > 100 µM (inactive)
LXFL 529
  GI50: > 100 µM (inactive)
IGROV-1
  GI50: > 100 µM (inactive)
SK-MEL-5
  GI50: > 100 µM (inactive)
HOP-18
  GI50: 92.3 µM (inactive)
SK-MEL-2
  GI50: > 100 µM (inactive)
CAKI-1
  GI50: > 100 µM (inactive)
HCT-116
  GI50: > 100 µM (inactive)
NCI-H460
  GI50: > 100 µM (inactive)
UACC-257
  GI50: > 100 µM (inactive)
UACC-62
  GI50: > 100 µM (inactive)
A498
  GI50: > 100 µM (inactive)
HCC 2998
  GI50: 0.319 µM (active)
OVCAR-5
  GI50: > 100 µM (inactive)
TK-10
  GI50: > 100 µM (inactive)
SW-620
  GI50: > 100 µM (inactive)
A549
  GI50: > 100 µM (inactive)
OVCAR-8
  GI50: > 100 µM (inactive)
RXF 393
  GI50: > 100 µM (inactive)
LOX IMVI
  GI50: > 100 µM (inactive)
SN12C
  GI50: > 100 µM (inactive)
RPMI-8226
  GI50: > 100 µM (inactive)
SF-539
  GI50: > 100 µM (inactive)
KM-20L2
  GI50: > 100 µM (inactive)
NCI-H226
  GI50: > 100 µM (inactive)
UO-31
  GI50: > 100 µM (inactive)
CCRF-CEM
  GI50: 92.7 µM (inactive)
COLO 205
  GI50: > 100 µM (inactive)
SNB-78
  GI50: > 100 µM (inactive)
SF-268
  GI50: > 100 µM (inactive)
EKVX
  GI50: > 100 µM (inactive)
